Assay results taken from PMC5458179, “Oxidative DNA double strand breaks and autophagy in the antitumor effect of sterically hindered platinum(II) complexes in NSCLCs” (Oncotarget, 2017).

Columns and labels:
Type in all cases: cell-based, human
p-Akt = test: Western blot of PI3K/Akt/mTOR pathway; details: A549, 10 μM, 24 h, relative to control
Source text: (§1) The mammalian target of rapamycin (mTOR) kinase is used to regulate autophagy as controlled though oxidative stress, hypoxia and growth receptors. The phosphatidylinosital-3 kinase (PI3K)/Akt signaling pathway activates mTOR through phosphorylating and inactivating the tuberous sclerosis complex (TSC)1–TSC2 complex. Inhibition of mTOR results in activation of autophagy. […] At the same time, levels of the p-Akt protein decreased to 0.95-, 1.02-, and 0.39-folds, respectively (Figure 7B). […] As a results, the administration of complex 3 decreased levels of proteins in PI3K/Akt/mTOR signaling pathways.
(§2) Lysates were centrifuged at 12,000 g for 0.5 h at 4°C. The concentrations of total proteins were measured using the BCA assay method with Varioskan spectrofluorometer and spectrophotometer (Thermo, Waltham, MA) at 562 nm. Protein (20–100 μg) prepared from the indicated cells was loaded per lane and electrophoresed in 8% or 10% sodium dodecyl sulfate polyacrylamide gel electrophoresis (SDS-PAGE), and then transferred onto polyvinylidene difluoride (PVDF) Immobilon-P membrane (Bio-Rad, USA) using a transblot apparatus (Bio-Rad, USA). The membranes were blocked with 5% (w/v) non-fat milk at 0.5 h at 37°C, followed by overnight incubation at 4°C with primary antibodies diluted in PBST. After washing with PBST, the membranes were incubated for 1 h with an IRDye´800 conjugated secondary antibody diluted 1:20000 in PBST, and the labeled proteins were detected with an Odyssey Scanning System (Li-COR., Lincoln, Nebraska, USA).

p-mTOR = test: Western blot of PI3K/Akt/mTOR pathway; details: A549, 10 μM, 24 h, relative to control
Source text: as §1, §2

LC3-II = test: Western blot of LC3-II
Procedure: (§3) The role of complex 3-induced autophagy in cell death was further analyzed (Figure 6). When A549 cancer cells were treated with complex 3 of 10 μM, the protein expression of LC3-II was increased (Figure 6A). […] Treatment with complex 3 for 24 h caused a 4.5-folds increase in cells undergoing autophagy (Figure 6C). […] Moreover, Bax and Bcl-2 expressions were measured by western blot analysis of whole cell lysates.
(§4) To investigate the role of ROS in complex 3-induced cell death, the level of intracellular H2O2 was measured. […] Exposure of A549 cells to NAC reduced levels of LC3-II from 2.3- to 1.5-folds (Figure 8B). […] In parallel, the complex 3-induced increase ratio of Bax/Bcl-2 was suppressed by NAC (Figure 8E).
as §2

A549 cells = test: Quantification of apoptotic cells (annexin V/PI flow cytometry)
Procedure: as §3, §4
The mode of cell death was analyzed by flow cytometry with annexin V/propidium iodide (PI) double-staining to detect membrane events according to a previous study. After individual treatments, whole cells were collected in 4-(2-hydroxyethyl)-1-piperazineethanesulfonic acid (HEPES) buffer containing 10 mM HEPES (pH 7.4), 140 mM NaCl, and 2.5 mM CaCl2. Cells were subsequently stained with annexin V (2.5 μg/ml) and PI (2 ng/ml) for 20 min, followed by analysis by flow cytometry (Beckman Coulter). Cystograms of the four quadrants in the figure were used to distinguish normal (annexin V^−/PI^−), early apoptotic (annexin V^+/PI^−), late apoptotic(annexin V^+/PI^+), and necrotic cells (annexin V^−/PI^+). The sum of early apoptosis and late apoptosis is presented as total apoptosis.

[1] = system: A549 and NCI-H1299 cancer cells; test: Mitochondrial transmembrane potential (JC-1); details: A549 and NCI-H1299, 10 μM, 24 h
Source text: To further study the detailed process of apoptosis induced by complex 3 in NSCLC cells, we examined the mitochondrial membrane potential (ΔΨm), which is an important proapoptotic index for early apoptosis. We chose a mitochondria-specific and voltage-dependent fluorescent probe, JC-1, to observe whether there was loss in ΔΨm.
The electrical potential difference across inner mitochondrial membrane (ΔΨm) was monitored using the ΔΨm-specific fluorescent probe JC-1 (Molecular Probes Inc., Eugene, OR), a sensitive fluorescent dye. […] Red fluorescence is attributable to a potential-dependent aggregation in the mitochondria. Green fluorescence, reflecting the monomeric form of JC-1, appeared in the cytosol after mitochondrial membrane depolarization. Relative fluorescence intensities were monitored using the flow cytometry (FACSCalibur, Becton Dickinson), and analyzed by the software Modfit and Cell Quest (BD Biosciences, Franklin Lakes, NJ) with settings of FL1 (green) at 530 nm and FL2 (red) at 585 nm.

A549 cancer cells = test: Intracellular GSH measurement; details: A549, 10 μM, 4 h
Procedure: After 4 h, medium was removed and dishes were rinsed three times with cold PBS. The cells were harvested and cell numbers were counted. Then, intracellular GSH levels were measured using a GSH test kit (KeyGen KGT006). A549 and NCI-H1299 cancer cells without treatment were used as control groups.

MDC1/Aprataxin = test: Immunostaining of DSB repair proteins; details: A549, 10 μM, 24 h
Source text: The serine 139-phosphorylated form of chromatin-associated histone H2AX, namely γ-H2AX, is a key marker of cellular response to DDR, particularly DSBs. […] Obviously, pre-treatment of NAC could considerably alleviate the DDR triggered by complex 3 (Figure 5B). Therefore, we came to a conclusion that complex 3 caused DDR especially DSBs in A549 cells, which might happen after the increased level of intracellular ROS. In order to reveal the mechanisms underlying the enhanced DNA damage, complex 3 was studied to learn whether it could reduce the activation of DNA repair response including the co-localization of DSB repair protein MDC1/Aprataxin within nucleus. […] In order to reveal the mechanisms underlying DNA damage, complex 3 was studied to detect whether it could suppress the activation of DNA single strand break repair via the phosphorylation of SSB repair mediator/adaptor proteins XRCC1 within nucleus.
For assessment of DSBs repair kinetics we detected the total nuclear volume for an average of 50–60 nuclei per time points and cell type. Briefly, A549 cells were grown to confluence in 35 mm petri-dishes with 0.17 mm glass bottom. […] Non-specific binding was blocked by incubation with 5% FCS/PBS/0.1% Triton X-100 for 1 h at RT. […] Numbers of γH2AX foci were counted in 50–60 nuclei and plotted over time as previously described.

Bax and Bcl-2 = test: Western blot of Bax and Bcl-2; details: A549, 10 μM, 24 h, whole cell lysates
Procedure: as §3, §2

[2] = A549, 10 μM complex 18 h, without NAC
[3] = A549, 5 mM NAC 2 h pretreatment then 10 μM complex 18 h

`CC(C)C[NH+]1[C@@H]2CCCC[C@H]2[NH+](CC(C)C)[Pt-2]12[O]C(=O)CC(=O)[O]2` (stereo partly shown) [Complex 3] was tested, and the “levels of the p-Akt protein” value (p-Akt) was 1.02 folds, the “amounts of p-mTOR” value (p-mTOR) was 1.41 folds and the “levels of LC3-II” value (LC3-II; [2]) was 2.3 folds. The “level of LC3-II” value (LC3-II; A549, 10 μM, 24 h) was 2.5 folds, the “levels of LC3-II” value (LC3-II; [3]) was 1.5 folds and the percentage of apoptosis (A549 cells; [2]) was 52.5%. For the same compound, the percentage of apoptosis (A549 cells; [3]) was 34.2%, the “mitochondrial membrane potential (ΔΨm)” value [1] was “remarkable decrement of ΔΨm” and the “intracellular GSH levels” value (A549 cancer cells) was “did significantly reduce”. The “co-localization of MDC1/Aprataxin to the damaged DNA” value (MDC1/Aprataxin) was “dramatically decrease in the co-localization of MDC1/Aprataxin” and the “Bax and Bcl-2 protein levels” value (Bax and Bcl-2) was “Incremental changes in pro-apoptotic Bax and decreased changes anti-apoptotic Bcl-2 protein levels”.

For `O=C1[O][Pt]2([NH][C@@H]3CCCC[C@H]3[NH]2)[O]C1=O` [Oxaliplatin, oxaliplatin, reference compound], the “levels of the p-Akt protein” value (p-Akt) was 0.95 folds and the “amounts of p-mTOR” value (p-mTOR) was 1.15 folds.
